Results published in patent publication US11504382B2, “Tricyclic inhibitors of Hepatitis B virus” (Antios Therapeutics, Inc., priority 2018, dated 2022).

What follows are molecules tested on HBV (assay: HBV inhibition assay in HepAD38 cells (extracellular HBV DNA by direct qPCR)). Details: 0.1 μM, 96 hours, relative to non-treated reference.
Format: cell-based, Hepatitis B virus
“tert-butyl 7-methyl-8-((3,4,5-trifluorophenyl)carbamoyl)-3a,4,10,10a-tetrahydro-1H,7H-dipyrrolo[3,4-b:3′,4′-f][1,4,5]oxathiazocine-2(3H)-carboxylate 5,5-dioxide (3aR,10aR) [Example E33]” was tested, and the “Anti HBV Activity (conc μM)” value was “B (0.1) (HBV inhibition less than 50% at the concentration indicated in the table)”. With Cn1cc2c(c1C(=O)Nc1ccc(F)c(F)c1)OCC1CCCC1NS2(=O)=O (single isomer, unassigned) [Example E34, N-(3,4-difluorophenyl)-2-methyl-5a,6,7,8,8a,9-hexahydro-2H,5H-cyclopenta[f]pyrrolo[3,4-b][1,4,5]oxathiazocine-1-carboxamide 4,4-dioxide (Chiral 5aS,8aR or 5aR,8aS - Stereochemistry unknown)] the “Anti HBV Activity (conc μM)” value was “B (0.1) (HBV inhibition less than 50% at the concentration indicated in the table)”.

Same assay, conditions: 96 hours, 8-point dose-response curve, read-out: HBV inh EC50
CCOC(=O)N1CC2NS(=O)(=O)c3cn(C)c(C(=O)Nc4cc(F)c(F)c(F)c4)c3OCC2(C)C1 (single isomer, unassigned) [Example E91, Ethyl 7,10a-dimethyl-8-((3,4,5-trifluorophenyl)carbamoyl)-3a,4,10,10a-tetrahydro-1H,7H-dipyrrolo[3,4-b:3′,4′-f][1,4,5]oxathiazocine-2(3H)-carboxylate 5,5-dioxide (Chiral 3aS,10aS or 3aR,10aR - Stereochemistry unknown)] gave an EC50 of under 1000 nM. Work on Cc1cc(NC(=O)c2c3c(cn2C)S(=O)(=O)NC2CCN(C(=O)C4(C)CCCO4)CC2CO3)ccc1F (racemic) [Example E132, Trans-N-(4-fluoro-3-methylphenyl)-2-methyl-8-(2-methyltetrahydrofuran-2-carbonyl)-5,5a,6,7,8,9,9a,10-octahydro-2H-pyrido[4,3-f]pyrrolo[3,4-b][1,4,5]oxathiazocine-1-carboxamide 4,4-dioxide] yielded an EC50 of under 1000 nM.

Same assay, conditions: Hepatitis B virus, 0.05 μM, 96 hours, relative to non-treated reference, read-out: Anti HBV Activity (conc μM)
Cc1nnc(N2CC3COc4c(cn(C)c4C(=O)Nc4cc(F)c(F)c(F)c4)S(=O)(=O)NC3C2)o1 (stereo not drawn) [Example E78, cis-7-methyl-2-(5-methyl-1,3,4-oxadiazol-2-yl)-N-(3,4,5-trifluorophenyl)-2,3,3a,4,10,10a-hexahydro-1H,7H-dipyrrolo[3,4-b:3′,4′-f][1,4,5]oxathiazocine-8-carboxamide 5,5-dioxide] was tested, and the inhibition at 0.05 µM was over 50%. Molecule Cn1cc2c(c1C(=O)Nc1cc(F)c(F)c(F)c1)OCC1CN(C(=O)c3nccs3)CC1NS2(=O)=O (stereo not drawn) [Example E58, cis-7-methyl-2-(thiazole-2-carbonyl)-N-(3,4,5-trifluorophenyl)-2,3,3a,4,10,10a-hexahydro-1H,7H-dipyrrolo[3,4-b:3′,4′-f][1,4,5]oxathiazocine-8-carboxamide 5,5-dioxide] has an inhibition at 0.05 µM of over 50%. Cn1cc2c(c1C(=O)Nc1cc(F)c(F)c(F)c1)OC[C@H]1CN(C(=O)c3ncco3)C[C@H]1NS2(=O)=O (relative stereo) [Example E50, cis-7-methyl-2-(oxazole-2-carbonyl)-N-(3,4,5-trifluorophenyl)-2,3,3a,4,10,10a-hexahydro-1H,7H-dipyrrolo[3,4-b:3′,4′-f][1,4,5]oxathiazocine-8-carboxamide 5,5-dioxide] gave an inhibition at 0.05 µM of over 50%.

Same assay, conditions: Hepatitis B virus, 0.1 μM, 96 hours, relative to non-treated reference, read-out: Anti HBV Activity (conc μM)
Cn1cc2c(c1C(=O)Nc1ccc(F)c(F)c1)OC[C@H]1NCC[C@H]1NS2(=O)=O (single isomer, unassigned) [Example E25] was tested, and the inhibition at 0.1 µM was under 50%. For Cn1cc2c(c1C(=O)Nc1cc(F)c(F)c(F)c1)OC[C@H]1CN(C(=O)COP(=O)(O)O)C[C@H]1NS2(=O)=O (relative stereo) [Example E72, cis-2-(7-methyl-5,5-dioxido-8-((3,4,5-trifluorophenyl)carbamoyl)-3a,4,10,10a-tetrahydro-1H,7H-dipyrrolo[3,4-b:3′,4′-f][1,4,5]oxathiazocin-2(3H)-yl)-2-oxoethyl Dihydrogen Phosphate], the inhibition at 0.1 µM was under 50%. Cn1cc2c(c1C(=O)Nc1cc(F)c(F)c(F)c1)OCC1CN(C(=O)CO)CC1NS2(=O)=O (stereo not drawn) [Example E71, cis-2-(2-hydroxyacetyl)-7-methyl-N-(3,4,5-trifluorophenyl)-2,3,3a,4,10,10a-hexahydro-1H,7H-dipyrrolo[3,4-b:3′,4′-f][1,4,5]oxathiazocine-8-carboxamide 5,5-dioxide] showed an inhibition at 0.1 µM of under 50%. For Cn1cc2c(c1C(=O)Nc1cc(F)c(F)c(F)c1)OCC1CNCC1NS2(=O)=O (racemic) [Example E11, cis-7-methyl-N-(3,4,5-trifluorophenyl)-2,3,3a,4,10,10a-hexahydro-1H,7H-dipyrrolo[3,4-b:3′,4′-f][1,4,5]oxathiazocine-8-carboxamide 5,5-dioxide], the inhibition at 0.1 µM was over 50%.

Same assay, conditions: Hepatitis B virus, 1 μM, 96 hours, relative to non-treated reference, read-out: Anti HBV Activity (conc μM)
Work on Cn1cc2c(c1C(=O)Nc1ccc(F)c(F)c1)NCC1CCCCN1S2(=O)=O (stereo not drawn) [Example E2, N-(3,4-difluorophenyl)-2-methyl-2,6,7,8,9,9a,10,11-octahydropyrido[1,2-b]pyrrolo[3,4-f][1,2,5]thiadiazepine-1-carboxamide 4,4-dioxide] yielded an inhibition at 1 µM of under 50%.

Same assay, conditions: Hepatitis B virus, 96 hours, 8-point dose-response curve, read-out: HBV inh EC50
Work on Cc1nnc(C(=O)N2C[C@H]3COc4c(cn(C)c4C(=O)Nc4ccc(F)c(C)c4)S(=O)(=O)N[C@@H]3C2)o1 (relative stereo) [Example E146, Trans-N-(4-fluoro-3-methylphenyl)-7-methyl-2-(5-methyl-1,3,4-oxadiazole-2-carbonyl)-2,3,3a,4,10,10a-hexahydro-1H,7H-dipyrrolo[3,4-b:3′,4′-f][1,4,5]oxathiazocine-8-carboxamide 5,5-dioxide] yielded an EC50 of under 1000 nM. Cc1cc(NC(=O)c2c3c(cn2C)S(=O)(=O)N[C@H]2CN(C(=O)c4cocn4)C[C@H]2CO3)ccc1F [Example E104, (3aR,10aR)—N-(4-fluoro-3-methylphenyl)-7-methyl-2-(oxazole-4-carbonyl)-2,3,3a,4,10,10a-hexahydro-1H,7H-dipyrrolo[3,4-b:3′,4′-f][1,4,5]oxathiazocine-8-carboxamide 5,5-dioxide] gave an EC50 of under 1000 nM. Cc1cc(NC(=O)c2c3c(cn2C)S(=O)(=O)N[C@H]2CN(C(=O)c4cnon4)C[C@H]2CO3)ccc1F [Example E105, (3aR,10aR)—N-(4-fluoro-3-methylphenyl)-7-methyl-2-(1,2,5-oxadiazole-3-carbonyl)-2,3,3a,4,10,10a-hexahydro-1H,7H-dipyrrolo[3,4-b:3′,4′-f][1,4,5]oxathiazocine-8-carboxamide 5,5-dioxide] showed an EC50 of under 1000 nM. For Cc1nnc(C(=O)N2C[C@H]3CSc4c(cn(C)c4C(=O)Nc4ccc(F)c(C)c4)S(=O)(=O)N[C@H]3C2)o1 [Example E124, (3aR,10aR)—N-(4-fluoro-3-methylphenyl)-7-methyl-2-(5-methyl-1,3,4-oxadiazole-2-carbonyl)-2,3,3a,4,10,10a-hexahydro-1H,7H-dipyrrolo[3,4-c:3′,4′-g][1,6,2]dithiazocine-8-carboxamide 5,5-dioxide], the EC50 was under 1000 nM. Work on Cc1nnc(C(=O)N2C[C@H]3COc4c(cn(C)c4C(=O)Nc4ccc(F)c(C)c4)S(=O)(=O)N[C@@H]3C2)o1 (single isomer, unassigned) [Example E153] yielded an EC50 of under 1000 nM. With CCOC(=O)N1C[C@H]2C[C@@H]1COc1c(cn(C)c1C(=O)Nc1cc(F)c(F)c(F)c1)S(=O)(=O)N2 [Example E77, Ethyl (3R,6R)-10-methyl-9-((3,4,5-trifluorophenyl)carbamoyl)-3,4,6,7-tetrahydro-10H-3,6-methanopyrrolo[3,4-b][1,4,5,8]oxathiadiazecine-5(2H)-carboxylate 1,1-dioxide] the EC50 was under 1000 nM. Molecule Cc1nnc(N2CC3COc4c(cn(C)c4C(=O)Nc4cc(F)c(F)c(F)c4)S(=O)(=O)NC3C2)o1 (stereo not drawn) [Example E78, cis-7-methyl-2-(5-methyl-1,3,4-oxadiazol-2-yl)-N-(3,4,5-trifluorophenyl)-2,3,3a,4,10,10a-hexahydro-1H,7H-dipyrrolo[3,4-b:3′,4′-f][1,4,5]oxathiazocine-8-carboxamide 5,5-dioxide] has an EC50 of under 1000 nM. Cc1cc(NC(=O)c2c3c(cn2C)S(=O)(=O)NC2CN(C(=O)C4(C)COC4)CC2(C)CO3)ccc1F (stereo not drawn) [Example E89, cis-N-(4-fluoro-3-methylphenyl)-7,10a-dimethyl-2-(3-methyloxetane-3-carbonyl)-2,3,3a,4,10,10a-hexahydro-1H,7H-dipyrrolo[3,4-b:3′,4′-f][1,4,5]oxathiazocine-8-carboxamide 5,5-dioxide] showed an EC50 of under 1000 nM. In the case of Cn1cc2c(c1C(=O)Nc1cc(F)c(F)c(F)c1)OCC1CN(C(=O)c3nccs3)CC1NS2(=O)=O (stereo not drawn) [Example E58, cis-7-methyl-2-(thiazole-2-carbonyl)-N-(3,4,5-trifluorophenyl)-2,3,3a,4,10,10a-hexahydro-1H,7H-dipyrrolo[3,4-b:3′,4′-f][1,4,5]oxathiazocine-8-carboxamide 5,5-dioxide], the EC50 is reported as under 1000 nM. Work on Cc1noc(N2C[C@H]3COc4c(cn(C)c4C(=O)Nc4cc(F)c(F)c(F)c4)S(=O)(=O)N[C@H]3C2)n1 [Example E117, (3aR,10aR)-7-methyl-2-(3-methyl-1,2,4-oxadiazol-5-yl)-N-(3,4,5-trifluorophenyl)-2,3,3a,4,10,10a-hexahydro-1H,7H-dipyrrolo[3,4-b:3′,4′-f][1,4,5]oxathiazocine-8-carboxamide 5,5-dioxide] yielded an EC50 of under 1000 nM. Cn1cc2c(c1C(=O)Nc1cc(F)c(F)c(F)c1)OCC1CNCC1NS2(=O)=O (racemic) [Example E11, cis-7-methyl-N-(3,4,5-trifluorophenyl)-2,3,3a,4,10,10a-hexahydro-1H,7H-dipyrrolo[3,4-b:3′,4′-f][1,4,5]oxathiazocine-8-carboxamide 5,5-dioxide] was tested, and the EC50 was under 1000 nM. Work on Cc1nnc(N2C[C@H]3COc4c(cn(C)c4C(=O)Nc4ccc(F)c(C)c4)S(=O)(=O)N[C@H]3C2)o1 [Example E118, (3aR,10aR)—N-(4-fluoro-3-methylphenyl)-7-methyl-2-(5-methyl-1,3,4-oxadiazol-2-yl)-2,3,3a,4,10,10a-hexahydro-1H,7H-dipyrrolo[3,4-b:3′,4′-f][1,4,5]oxathiazocine-8-carboxamide 5,5-dioxide] yielded an EC50 of under 1000 nM. Cn1cc2c(c1C(=O)Nc1cc(F)c(F)c(F)c1)OC[C@H]1CN(C(=O)c3ncco3)C[C@H]1NS2(=O)=O (relative stereo) [Example E50, cis-7-methyl-2-(oxazole-2-carbonyl)-N-(3,4,5-trifluorophenyl)-2,3,3a,4,10,10a-hexahydro-1H,7H-dipyrrolo[3,4-b:3′,4′-f][1,4,5]oxathiazocine-8-carboxamide 5,5-dioxide] was tested, and the EC50 was under 1000 nM. Cc1nnc(C(=O)N2CCC3COc4c(cn(C)c4C(=O)Nc4ccc(F)c(C)c4)S(=O)(=O)NC3C2)o1 (racemic) [Example E135, Cis-N-(4-fluoro-3-methylphenyl)-2-methyl-7-(5-methyl-1,3,4-oxadiazole-2-carbonyl)-5,5a,6,7,8,9,9a,10-octahydro-2H-pyrido[3,4-f]pyrrolo[3,4-b][1,4,5]oxathiazocine-1-carboxamide 4,4-dioxide] showed an EC50 of under 1000 nM.

Same assay, conditions: read-out: HBV inh EC50, 96 hours, 8-point dose-response curve
With Cc1cc(NC(=O)c2c3c(cn2C)S(=O)(=O)NC2CCN(C(=O)c4ncoc4C)CC2CO3)ccc1F (racemic) [Example E129, Cis-N-(4-fluoro-3-methylphenyl)-2-methyl-8-(5-methyloxazole-4-carbonyl)-5,5a,6,7,8,9,9a,10-octahydro-2H-pyrido[4,3-f]pyrrolo[3,4-b][1,4,5]oxathiazocine-1-carboxamide 4,4-dioxide] the EC50 was under 1000 nM.
